In patent US20070219159A1, “CYCLODEXTRIN COMPOSITIONS AND METHODS OF TREATING VIRAL INFECTIONS” (priority 2002, published 2007):
Where two headings read alike, the source gives them in different places.

What was measured:
HCV = assay: In vitro anti-HCV assay in HCV RNA-replicating cell line AVA5; type: cell-based
Procedure: The antiviral activity of test compounds were assayed in the stably HCV RNA-replicating cell line. AVA5, derived by transfection of the human hepatoblastoma cell line, Huh^7 (Blight et al., 2000). Experimental drugs were added to dividing cultures once daily for three days. Media was changed with each addition of compound. Cultures generally started the assays at 50% confluence and reached confluence during the last day of treatment. HCV RNA and cellular β-actin RNA levels were assessed 24 hours after the last dose of compound using dot blot hybridization. Assays were conducted using a single dose of test compound (in triplicate cultures).
Both HCV and β-actin RNA levels in the treated cultures were expressed as a percentage of the mean levels of RNA detected in untreated cultures. β-actin RNA levels were used both as a measure of toxicity, and to normalize the amount of cellular RNA in each sample. A level of 30% or less HCV RNA (relative to control cultures) was considered to be a positive antiviral effect, and a level of 50% or less β-actin RNA (relative to control cultures) is considered to be a cytotoxic effect.
Dividing cultures of AVAB cells were treated once daily for three days (media was changed with each addition of compound) with 4 concentrations of test compounds (3 cultures per concentration). A total of 6 untreated control cultures, and triplicate cultures treated with 10, 3, and 1 IU/ml α-interferon (active antiviral with no cytotoxicity), and 100, 10, and 1 μM ribavir ([…]) served as controls. HCV RNA and cellular β-actin FNA levels were assessed 24 hours after the last dose of compound using dot blot hybridization. β-actin RNA levels were used to normalize the amount of cellular RNA in each sample.
Toxicity analyses were performed on separate plates from those used for the antiviral assays. Cells for the toxicity analyses were cultured and treated with test compounds with the same schedule and under identical culture conditions used for the antiviral evaluations. Each compound was tested at 4 concentrations, each in triplicate cultures. Uptake of neutral red dye was used to determine the relative level of toxicity 24 hours following the last treatment. The absorbance of internalized dye at […] (A510) was used for the quantitative analysis. Values in test cultures were compared to 9 cultures of untreated cells maintained on the same plate as the test cultures.
Assays similar to those described above were conducted.

HSV-1 strain KOS1.1 = type: cell-based
Vero cells = assay: Cell viability by LDH release assay; type: cell-based; conditions: acyclovir 400 μg/ml, 24 and 48 hours, Vero cells
Procedure: FIG. 3 depicts the effects of ACV alone (400 μg/ml) and β-CD alone (8 mg/ml) on the viability of Vero cells as monitored by the LDH release assay after 24 hours of treatments (A); and after 48 hours of treatments (B). All data represents means+SD of two separate experiments.
Cell viability assay. Cell viability was determined fluorometrically by estimating the release of LDH into the media (Moran and Schnellman, 1996). LDH activity was based on the reduction of pyruvate to lactate. The concomitant oxidation of NADH results in a decrease in the fluorescence emission at 450 nm with excitation wavelength 355 nm, and the rate of disappearance of NADH is indicative of LDH activity.
To study the effects of formulations on viability of preformed monolayers, 3 to 4×10^6 Vero cells were added to 1× MEM-5% FBS in T75 flasks. […] Used media were replaced with 15 ml of treatment media, containing 5× MEM-FBS diluted to 1× with water (control), acyclovir stock (400 μg/ml), or β-CD stock (8 mg/ml in water). […]
Reaction solution was made fresh for each experiment by mixing 0.4 ml of 16.2 mM pyruvate with 10 ml of 0.2 mM NADH in phosphate buffer (pH 7.5). […] The amount of LDH calculated for either condition was then compared with and expressed as a percentage of the total LDH present.
Used media were replaced with 15 ml/flask or 2.5 ml/well of treatment media, containing 5× MEM-FBS diluted to 1× with water (control), and […]CD stock. […] Live cells are distinguished by the presence of intracellular esterase activity, as determined by the enzymatic conversion of calcein-AM (nonfluorescent) to calcein (green fluorescence). EthD-1 enters cells with damaged cell membranes and binds to nucleic acids producing red fluorescence to identify dead cells. […] For LDH assays, cells were trypsinized, resuspended in fresh 1× medium, kept at 37° C.-5% CO2 atmosphere, and total LDH present in cells and medium was determined after lysing the cells with 350 μM digitonin. The amount of LDH calculated for either condition was then compared with and expressed as a percentage of the total LDH present. […]

[1] = tested on: dlsptk (an ACV-resistant, tk deletion mutant of HSV-1); type: cell-based; conditions: MOI 10, 20 μM (4.5 μg/ml) ACV or 6.4 mg/ml β-CD for 24 hours
West Nile = assay: In vitro antiviral screening (Table 1), West Nile
EBV = conditions: DNA hybridization
HSV-2 = conditions: in general 1000-fold less drug than Examples 1-6 and 10
HSV-1 = conditions: in general 1000-fold less drug than Examples 1-6 and 10

α-interferon
approximate EC90 (HCV; positive antiviral control, no cytotoxicity): ~10 IU/ml

Nc1nc2c(ncn2COCCO)c(=O)[nH]1 [ACV, acyclovir, reference compound]
reduction of KOS1.1 yield at 24 hours (HSV-1 strain KOS1.1; 4.5 μg/ml ACV, MOI 10, post-infection treatment): 10^2 fold | yield of cell-free and cell-associated virus (HSV-1 strain KOS1.1; 24 hours post-infection, MOI 50, BCD 7.2 mg/ml, ACV 400 μg/ml or both, pre, during and post infection treatment (FIG. 1)): markedly decreased | effect on yield of acyclovir-sensitive HSV KOS1.1 (FIG. 2) (HSV-1 strain KOS1.1; MOI 10, 20 μM ACV or 6.4 mg/ml β-CD for 24 hours): able to lower the yield | drug-related cell killing (Vero cells): no drug-related cell killing | effect on yield of acyclovir-resistant dlsptk virus (FIG. 2) [1]: no activity | effect on yield of acyclovir-resistant dlsptk virus (FIG. 2) ([1]; listed as acyclovir): not of the acyclovir -resistant mutant

hydroxypropyl γ-cyclodextrin [HPGCD]
S.I. for HCV (HCV): 1.39 | SI = CC50/EC50 (West Nile): 0 | SI = CC50/EC50, value in parenthesis calculated by DNA hybridization (EBV): 6.2

hydroxypropyl α-cyclodextrin [HPACD]
S.I. for HCV (HCV): 0.97 | SI = CC50/EC50 (West Nile): 0

CC(O)COC[C@H]1O[C@@H]2O[C@H]3[C@H](O)[C@@H](O)[C@@H](O[C@H]4[C@H](O)[C@@H](O)[C@@H](O[C@H]5[C@H](O)[C@@H](O)[C@@H](O[C@H]6[C@H](O)[C@@H](O)[C@@H](O[C@H]7[C@H](O)[C@@H](O)[C@@H](O[C@H]8[C@H](O)[C@@H](O)[C@@H](O[C@H]1[C@H](O)[C@H]2O)O[C@@H]8COCC(C)O)O[C@@H]7COCC(C)O)O[C@@H]6COCC(C)O)O[C@@H]5COCC(C)O)O[C@@H]4COCC(C)O)O[C@@H]3COCC(C)O (stereo partly drawn) [HPBCD, hydroxypropyl β-cyclodextrin]
SI = CC50/EC50 (Punta Toro): 0 | S.I. for HCV (HCV): 1.26 | SI = CC50/EC50 (MV): 0 | SI = CC50/EC50 (Vaccinia): 0 | SI = CC50/EC50 (West Nile): 0 | SI = CC50/EC50 (Cowpox): 0 | SI = CC50/EC50 (Flu B): 0 | SI = CC50/EC50 (Resp syncytial): 0 | SI = CC50/EC50 (HCMV): 0 | SI = CC50/EC50 (Rhino): 0 | SI = CC50/EC50 (HRV): 0 | SI = CC50/EC50 (HHV-6): 0 | SI = CC50/EC50 (RSV): 0 | SI = CC50/EC50 (HSV-2): 0 | SI = CC50/EC50 (Flu A): 0 | SI = CC50/EC50 (Yellow fever): 0 | SI = CC50/EC50 (PIV): 0 | SI = CC50/EC50 (HSV-1): 0 | SI = CC50/EC50 (VEE): 0 | SI = CC50/EC50 (VZV): 0 | SI = CC50/EC50 (Pichinde): 0 | SI = CC50/EC50 (Measles): 0 | SI = CC50/EC50 (Ad): 0 | SI = CC50/EC50 (MCMV): 0 | SI = CC50/EC50 (HHV-7): 0
